Experimental data published in patent publication US20090275610A1, “TRICYCLIC OPIOID MODULATORS” (priority 2005, published 2009).
Several values for one entry are separate records, joined by “and”; a condition that tells them apart may be missing. Equal values may be shown once. Read-outs that look alike come from different tables or passages of the source.

Key:
mu opioid receptor = molecular target: T1, mu opioid receptor (Rattus norvegicus, UniProt P33535); experiment: Rat brain mu opioid receptor binding assay; details: rat forebrain membranes, [3H]DAMGO, 25° C., 2.5 h
T1 construct: the forebrains were homogenized in Tris buffer in a Teflon®-glass homogenizer; from tissue; host or cells: forebrain of male Wistar rats (particulate membrane preparation)
Procedure: Rat Brain Mu Opioid Receptor Binding Assay
(§1) Procedure: Male, Wistar rats (150-250 g, VAF, Charles River, Kingston, N.Y.) were killed by CO2, and their brains removed and placed immediately in ice cold Tris HCl buffer (50 mM, pH 7.4). The forebrains were separated from the remainder of the brain by a coronal transection, beginning dorsally at the colliculi and passing ventrally through the midbrain-pontine junction. After dissection, the forebrains were homogenized in Tris buffer in a Teflon®-glass homogenizer. The homogenate was diluted to a concentration of 1 g of forebrain tissue per 80 mL Tris and centrifuged at 39,000×g for 10 min. The pellet was resuspended in the same volume of Tris buffer containing 5 mM MgCl2 with several brief pulses from a Polytron homogenizer. This particulate preparation was used for the delta opioid binding assays.
(§2) Analysis: The data from the scintillation counter were used to calculate either the % inhibition compared to control binding (when only a single concentration of test compound was evaluated) or a Ki value (when a range of concentrations tested). Percent inhibition was calculated as: [(total dpm−test compound dpm)/(total dpm−nonspecific dpm)]*100. Kd and Ki values were calculated using GraphPad PRISM data analysis program.

[1] = molecular target: T2, hMOR (CHO-hMOR cell membranes) (Homo sapiens, UniProt P35372); experiment: [35S]GTPγS binding assay in CHO-hMOR cell membranes; type: biochemical
T2 construct: host or cells: CHO cells expressing hMOR (purchased membranes)
Procedure: Functional Assay: [^35S]GTPγS Binding Assays in CHO-hMOR Cell Membranes
Methods: CHO-hMOR cell membranes were purchased from Receptor Biology, Inc. (Baltimore, Md.). About 10 mg/mL of membrane protein was suspended in 10 mM TRIS-HCl pH 7.2, 2 mM EDTA, 10% sucrose, and the suspension kept on ice. A 1 mL volume of membranes was added to 15 mL cold binding assay buffer containing 50 mM HEPES, pH 7.6, 5 mM MgCl2, 100 mM NaCl, 1 mM DTT and 1 mM EDTA. The membrane suspension was homogenized with a Polytron and centrifuged at 3,000 rpm for 10 min. The supernatant was then centrifuged at 18,000 rpm for 20 min. The pellet was resuspended in 10 mL assay buffer with a Polytron. The membranes were preincubated with wheat germ agglutinin coated SPA beads (Amersham) at 25° C. for 45 min in the assay buffer. The SPA bead (5 mg/mL) coupled membranes (10 μg/mL) were then incubated with 0.5 nM [^35S]GTPγS in the assay buffer. […] A range of concentrations of receptor agonist was used to stimulate [^35S]GTPγS binding. Both basal and non-specific binding was tested in the absence of agonist; non-specific binding determination included 10 μM unlabeled GTPγS.
Compounds were tested for function as antagonists by evaluating their potential to inhibit agonist-stimulated GTPγS binding. Radioactivity was quantified on a Packard TopCount. The following parameters were calculated:
(§3) EC50 values were calculated using GraphPad Prism.

[2] = molecular target: T3, delta opioid receptor (NG108-15 cell membranes) (Mus musculus, UniProt P32300); experiment: [35S]GTPγS binding assay in NG108-15 cell membranes (delta opioid); type: biochemical
T3 construct: NG108-15 cell membranes were purchased from Applied Cell Sciences (Rockville, Md.); host or cells: NG108-15 cell membranes (purchased)
Procedure: Functional Assay: [^35S]GTPγS Binding Assay in NG108-15 Cell Membranes (Delta Opioid)
Methods: NG108-15 cell membranes were purchased from Applied Cell Sciences (Rockville, Md.). A sample (8 mg/mL) of membrane protein suspended in 10 mM TRIS-HCl pH 7.2, 2 mM EDTA, 10% sucrose. Membranes were maintained at 4-8° C. A 1 mL volume of membranes was added into 10 mL cold binding assay buffer. The assay buffer contained 50 mM Tris, pH 7.6, 5 mM MgCl2, 100 mM NaCl, 1 mM DTT and 1 mM EGTA. The membrane suspension was homogenized twice with a Polytron, and centrifuged at 3000 rpm for 10 min. The supernatant was then centrifuged at 18,000 rpm for 20 min. Ten mL assay buffer was added into the pellet containing tube. The pellet and buffer were mixed with a Polytron.
Incubation procedure: The pellet membranes (75 μg/mL) were preincubated with SPA (10 mg/mL) at 25° C. for 45 min in the assay buffer. The SPA (5 mg/mL) coupled with membranes (37.5 μg/mL) was then incubated with 0.1 nM [^35S]GTPγS in the same Tris buffer containing 100 μM GDP in total volume of 200 μL. Increasing concentrations of receptor agonists were used to stimulate [^35S]-GTPγS binding. The basal binding was tested in the absence of agonists and non-specific binding was tested in the presence of 10 μM unlabeled GTPγS. The data were analyzed on a Packard Top Count.
% of Basal=(stimulated−non specific)*100/(basal−non specific).
as §3

delta opioid receptor = molecular target: T4, delta opioid receptor (Rattus norvegicus, UniProt P33533); experiment: Rat brain delta opioid receptor binding assay; details: rat forebrain membranes, [3H]DPDPE or [3H]naltrindole, 25° C., 2.5 h
T4 construct: the forebrains were homogenized in Tris buffer in a Teflon®-glass homogenizer; from tissue; host or cells: forebrain of male Wistar rats (particulate membrane preparation)
Procedure: Rat Brain Delta Opioid Receptor Binding Assay
as §1
as §2, with “concentrations was” for “concentrations”

[3] = read-out: rMOR (Ki, nM): Rat mu opioid receptor binding constant
[4] = CHO-hMOR cell membranes, read-out: mu GTPγS binding EC50
[5] = read-out: delta GTPγS binding EC50
[6] = read-out: rDOR (Ki, nM): Rat delta opioid receptor binding constant
[7] = rMOR (Ki, nM): Rat mu opioid receptor binding constant
[8] = rDOR (Ki, nM): Rat delta opioid receptor binding constant

T1 sequence (P33535 whole entry): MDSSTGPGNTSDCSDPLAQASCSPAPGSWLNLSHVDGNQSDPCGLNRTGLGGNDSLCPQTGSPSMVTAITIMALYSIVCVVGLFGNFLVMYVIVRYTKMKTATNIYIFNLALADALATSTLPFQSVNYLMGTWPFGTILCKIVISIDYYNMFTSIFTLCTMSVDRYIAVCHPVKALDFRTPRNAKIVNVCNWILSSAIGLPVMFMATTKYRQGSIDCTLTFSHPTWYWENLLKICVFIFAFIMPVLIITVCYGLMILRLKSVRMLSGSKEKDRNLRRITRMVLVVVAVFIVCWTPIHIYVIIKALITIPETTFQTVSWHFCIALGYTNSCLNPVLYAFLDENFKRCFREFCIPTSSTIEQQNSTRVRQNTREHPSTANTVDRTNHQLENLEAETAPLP
T3 sequence (P32300 whole entry): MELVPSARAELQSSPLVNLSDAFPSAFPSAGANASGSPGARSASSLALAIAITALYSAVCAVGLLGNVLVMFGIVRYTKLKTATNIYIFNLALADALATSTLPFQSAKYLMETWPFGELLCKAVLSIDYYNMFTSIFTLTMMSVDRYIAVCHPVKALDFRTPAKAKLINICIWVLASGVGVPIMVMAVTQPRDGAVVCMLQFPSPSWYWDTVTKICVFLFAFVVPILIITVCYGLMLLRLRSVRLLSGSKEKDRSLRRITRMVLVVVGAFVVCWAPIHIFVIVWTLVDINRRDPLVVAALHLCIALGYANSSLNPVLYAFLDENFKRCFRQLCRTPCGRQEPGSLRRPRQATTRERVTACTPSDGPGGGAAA
T4 sequence (P33533 whole entry): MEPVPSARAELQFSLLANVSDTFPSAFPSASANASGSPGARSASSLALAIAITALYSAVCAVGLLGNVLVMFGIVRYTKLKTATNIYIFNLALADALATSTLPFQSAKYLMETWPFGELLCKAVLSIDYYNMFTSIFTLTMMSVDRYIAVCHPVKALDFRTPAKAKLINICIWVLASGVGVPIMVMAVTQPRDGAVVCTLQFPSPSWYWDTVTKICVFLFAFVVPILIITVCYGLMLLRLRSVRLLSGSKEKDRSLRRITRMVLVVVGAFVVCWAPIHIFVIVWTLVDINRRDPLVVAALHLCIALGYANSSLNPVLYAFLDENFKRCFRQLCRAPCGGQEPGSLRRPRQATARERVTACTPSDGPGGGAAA
T2 sequence (P35372 whole entry): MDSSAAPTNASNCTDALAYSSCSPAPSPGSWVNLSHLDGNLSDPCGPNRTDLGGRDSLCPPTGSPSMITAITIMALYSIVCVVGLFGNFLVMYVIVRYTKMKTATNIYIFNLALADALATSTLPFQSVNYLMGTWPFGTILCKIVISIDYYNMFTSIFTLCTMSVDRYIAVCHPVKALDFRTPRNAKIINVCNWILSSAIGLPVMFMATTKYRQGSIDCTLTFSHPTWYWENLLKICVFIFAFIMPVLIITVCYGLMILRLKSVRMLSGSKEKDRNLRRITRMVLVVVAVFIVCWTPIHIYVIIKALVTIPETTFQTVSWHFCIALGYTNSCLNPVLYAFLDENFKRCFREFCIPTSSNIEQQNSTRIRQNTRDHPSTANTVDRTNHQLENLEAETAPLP

CC=C(C)CN1C2CCC1CC(=C1c3ccccc3Oc3c(O)cccc31)C2 [Cpd 27]
Ki (mu opioid receptor; [3]): 2.03 nM
EC50 [1, 4]: > 10000 nM
EC50 [2, 5]: 9.8 nM
Ki (delta opioid receptor; [6]): 0.35 nM

Oc1cccc2c1Oc1ccccc1C2=C1CC2CCC(C1)N2Cc1ncc[nH]1 [Cpd 34]
Ki (mu opioid receptor; [3]): 0.53 nM
EC50 [1, 4]: 1610 nM
EC50 [2, 5]: 3.33 nM
Ki (delta opioid receptor; [6]): 0.028 nM

Oc1cccc2c1Oc1ccccc1C2=C1CC2CCC(C1)N2Cc1cccnc1 [Cpd 31, 9-(8-pyridin-3-ylmethyl-8-azabicyclo[3.2.1]oct-3-ylidene)-9H-xanthen-4-ol]
Ki (mu opioid receptor; [7]): 1.23 nM
EC50 [1, 4]: 8090 nM
EC50 [2, 5]: 134 nM
Ki (delta opioid receptor; [8]): 0.028 nM

NC(=O)c1cccc2c1Oc1ccccc1C2=C1CC2CCC(C1)N2 [Cpd 3, 9-(8-Aza-bicyclo[3.2.1]oct-3-ylidene)-9H-xanthene-4-carboxylic acid amide]
Ki (mu opioid receptor; [7]): 29.4 nM
EC50 [1]: 3960 nM
EC50 ([2]; delta GTPγS binding EC50 (nM)): 42 nM
Ki (delta opioid receptor; [8]): 3.2 nM

Oc1cccc2c1Oc1ccccc1C2=C1CC2CCC(C1)N2 (single isomer, unassigned) [Cpd 8, 9-(8-Azabicyclo[3.2.1]oct-3-ylidene)-9H-xanthen-4-ol]
Ki (mu opioid receptor; [7]): 3.5 nM
EC50 [1]: 902 nM
EC50 ([2]; delta GTPγS binding EC50 (nM)): 9.98 nM
Ki (delta opioid receptor; [8]): 0.56 nM

Oc1cccc2c1Oc1ccccc1C2=C1CC2CCC(C1)N2Cc1ccccc1 [Cpd 32, 9-(8-benzyl-8-azabicyclo[3.2.1]oct-3-ylidene)-9H-xanthen-4-ol]
Ki (mu opioid receptor; [7]): 0.29 nM
EC50 [1]: > 10000 nM
EC50 ([2]; delta GTPγS binding EC50 (nM)): 28.6 nM
Ki (delta opioid receptor; [8]): 0.023 nM

NC(=O)c1cccc2c1Oc1ccccc1C2=C1CC2CCC(C1)N2 (single isomer, unassigned) [Cpd 37, 9-(8-Azabicyclo[3.2.1]oct-3-ylidene)-9H-xanthene-4-carboxylic acid amide]
Ki (mu opioid receptor; [7]): 29 nM
EC50 [1]: 878 nM
EC50 ([2]; delta GTPγS binding EC50 (nM)): 156 nM
Ki (delta opioid receptor; [8]): 4 nM

Oc1cccc2c1Oc1ccccc1C2=C1CC2CCCC(C1)N2 [Cpd 20, 9-(9-Azabicyclo[3.3.1]non-3-ylidene)-9H-xanthen-4-ol]
Ki (mu opioid receptor; [7]): 32.6 nM
EC50 [1]: 7080 nM
EC50 ([2]; delta GTPγS binding EC50 (nM)): 180 nM
Ki (delta opioid receptor; [8]): 20.2 nM

Oc1cccc2c1Oc1ccccc1C2=C1CC2CCC(C1)N2Cc1cccs1 [Cpd 24]
Ki (mu opioid receptor; [3]): 1.58 nM
EC50 [1, 4]: > 10000 nM
EC50 [2, 5]: 6.05 nM
Ki (delta opioid receptor; [6]): 0.046 nM

O=C(Nc1ccccc1)c1cccc2c1Oc1ccccc1C2=C1CC2CCC(C1)N2 [Cpd 12, 9-(8-Azabicyclo[3.2.1]oct-3-ylidene)-9H-xanthene-4-carboxylic acid phenylamide]
Ki (mu opioid receptor; [7]): 32 nM
EC50 [1]: 611 nM
mu GTPγS binding Rel Eff ([1]; CHO-hMOR cell membranes, value in parentheses): 0.96
EC50 ([2]; delta GTPγS binding EC50 (nM)): 30.3 nM
delta GTPγS binding Rel Eff ([2]; value in parentheses): 1.03
Ki (delta opioid receptor; [8]): 272 nM and 67.9 nM

CN1C2CCC1CC(=C1c3ccccc3Oc3c(O)cccc31)C2 [Cpd 19, 9-(8-Methyl-8-azabicyclo[3.2.1]oct-3-ylidene)-9H-xanthen-4-ol]
Ki (mu opioid receptor; [7]): 372 nM
EC50 [1]: > 10000 nM
EC50 ([2]; delta GTPγS binding EC50 (nM)): 768 nM
Ki (delta opioid receptor; [8]): 28.3 nM
